Results: patent publication US5321030A, “Creatine analogs having antiviral activity” (priority 1991, dated 1994)
In brackets after ≈: the same amount, converted by molar mass. Like-named read-outs stand apart in the source and are kept apart here.

Columns and labels:
[1] = Cytotoxicity in plaque reduction assay, MRC-5 cells; type: cell-based, human; conditions: human, mrc-5 cells, read-out: CD50 (the source's name)
Protocol: (§1) Cytotoxicity was determined by examination of cells (located away from plaques) in infected wells which had been treated with drug.

MRC-5 cells = test: as above; type: cell-based, human; conditions: HCMV experiments, 8 days of exposure
Protocol: as §1

in vitro [2] = conditions: guinea pig, gpe cells
in vivo = type: in vivo
in vitro [3] = conditions: monkey, vero cells
creatine kinase = creatine kinase (Oryctolagus cuniculus, UniProt P00563); conditions: cited from earlier work
HCMV, strain AD-169 = test: Plaque reduction assay, HCMV strain AD-169; type: cell-based, Human Cytomegalovirus; parameters: TI50 (CD50 ÷ ED50): unit not given here; conditions: for EC50: read-out: ED50 (the source's name)
[4] = newly hatched chicks, 1% in diet, with antibiotics; cited from earlier work
[5] = Phosphorylation of cyclocreatine in cultured cells

creatine kinase, sequence (P00563 whole entry): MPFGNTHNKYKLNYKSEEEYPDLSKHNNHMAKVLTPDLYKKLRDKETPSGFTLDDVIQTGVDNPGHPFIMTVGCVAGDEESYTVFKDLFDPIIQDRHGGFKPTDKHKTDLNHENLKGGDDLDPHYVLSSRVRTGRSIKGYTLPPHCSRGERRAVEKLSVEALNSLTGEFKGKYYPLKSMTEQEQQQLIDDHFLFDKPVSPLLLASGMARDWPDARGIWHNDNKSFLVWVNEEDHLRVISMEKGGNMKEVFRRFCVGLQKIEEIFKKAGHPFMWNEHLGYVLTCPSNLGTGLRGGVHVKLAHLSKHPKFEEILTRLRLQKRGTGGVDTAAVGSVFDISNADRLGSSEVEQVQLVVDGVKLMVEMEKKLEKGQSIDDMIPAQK

Compound `NC1=NCCN1CC(=O)O` [cyclocreatine, 1-carboxymethyl-2-iminoimidazolidine] has a CC50 ([1]; Table 4) greater than 4000 µg/mL, a CC50 ([1]; Table 6) greater than 10000 µg/mL and a CC50 ([1]; Table 7) greater than 10000 µg/mL. For the same compound, the CC50 ([1]; Table 9A) was greater than 4000 µg/mL, the visible cytotoxicity (MRC-5 cells) was “no visible signs of cytotoxicity” and the CC50 (in vitro [2]) was greater than 10000 µg/mL. The “tolerance in the diet” value (in vivo; 1% in mouse chow) was “well-tolerated”, the “tolerance in toxicity control” value (in vivo; cream topical, sham-infected mice) was “well-tolerated and caused no adverse effects to the vaginal area” and the survival (in vivo; mouse, in vivo, 1 %, read-out: Survivors/Total (%)) was 100%. The “Weight Change” value (in vivo; uninfected, AM-285 1% dietary, combined animal weights day 0 to day 15) was 7.8 g, the CC50 (in vitro [3]) was greater than 4000 µg/mL and the “Vmax/Km ratio relative to creatine” value (creatine kinase; forward reaction in vitro) was “approximately one-fifth”. The “initial rate of phosphorylation by creatine kinase, % of that of creatine” value (creatine kinase; in vitro, forward reaction) was 31%, the “Vmax, % of that of creatine” value (creatine kinase; measured at 1° C.) was 90% and the Ki (creatine kinase; reverse reaction at 1° C., read-out: Ki, competitive inhibitor of P-creatine) was 44 mM. The “TI50 (CD50 ÷ ED50)” value (HCMV, strain AD-169; Hs-68 cells, Table 5) was “greater than 6.2”, the “TI50 (CD50 ÷ ED50)” value (HCMV, strain AD-169; Hs-68 cells, Table 5, listed as AM-285) was greater than 6.2 and the “# Plaques” value (HCMV, strain AD-169; Hs-68 cells, AM-285 62.5 μg/ml, virus control 74.2 ± 8.6) was 71. The “# Plaques” value (HCMV, strain AD-169; Hs-68 cells, AM-285 125 μg/ml, virus control 74.2 ± 8.6) was 65, the “# Plaques” value (HCMV, strain AD-169; Hs-68 cells, AM-285 260 μg/ml, virus control 74.2 ± 8.6) was 87 and the “# Plaques” value (HCMV, strain AD-169; Hs-68 cells, AM-285 500 μg/ml, virus control 74.2 ± 8.6) was 41. For the same compound, the “# Plaques” value (HCMV, strain AD-169; Hs-68 cells, AM-285 1000 μg/ml, virus control 74.2 ± 8.6) was 19.5, the “# Plaques” value (HCMV, strain AD-169; Hs-68 cells, AM-285 2000 μg/ml, virus control 74.2 ± 8.6) was 1.5 and the “# Plaques” value (HCMV, strain AD-169; Hs-68 cells, AM-285 4000 μg/ml, virus control 74.2 ± 8.6) was 0. The inhibition at 260 µg/mL (HCMV, strain AD-169; Human betaherpesvirus 5, AD169, Hs68, read-out: % Reduction) was 0%, the EC50 (HCMV, strain AD-169; Human betaherpesvirus 5, AD169, Hs68, Hs-68 cells, Table 5) was 647 µg/mL (≈ 4.52 mM) and the inhibition at 62.5 µg/mL (HCMV, strain AD-169; Human betaherpesvirus 5, AD169, Hs68, Hs-68 cells, AM-285 62.5 μg/ml) was 0%. It also gave an inhibition at 125 µg/mL (HCMV, strain AD-169; Human betaherpesvirus 5, AD169, Hs68, Hs-68 cells, AM-285 125 μg/ml) of 0%, an inhibition at 500 µg/mL (HCMV, strain AD-169; Human betaherpesvirus 5, AD169, Hs68, Hs-68 cells, AM-285 500 μg/ml) of 45% and an inhibition at 1000 µg/mL (HCMV, strain AD-169; Human betaherpesvirus 5, AD169, Hs68, Hs-68 cells, AM-285 1000 μg/ml) of 74%. It also gave an inhibition at 2000 µg/mL (HCMV, strain AD-169; Human betaherpesvirus 5, AD169, Hs68, Hs-68 cells, AM-285 2000 μg/ml) of 98%, an inhibition at 4000 µg/mL (HCMV, strain AD-169; Human betaherpesvirus 5, AD169, Hs68, Hs-68 cells, AM-285 4000 μg/ml) of 100% and an EC50 (HCMV, strain AD-169; Human betaherpesvirus 5, AD169, MRC5, MRC-5 cells, Table 4) of 610 µg/mL (≈ 4.26 mM). It also gave an inhibition at 62.5 µg/mL (HCMV, strain AD-169; Human betaherpesvirus 5, AD169, MRC5, MRC-5 cells, AM 285 62.5 μg/ml) of 0%, an inhibition at 125 µg/mL (HCMV, strain AD-169; Human betaherpesvirus 5, AD169, MRC5, MRC-5 cells, AM 285 125 μg/ml) of 0% and an inhibition at 250 µg/mL (HCMV, strain AD-169; Human betaherpesvirus 5, AD169, MRC5, MRC-5 cells, AM 285 250 μg/ml) of 0%. For the same compound, the inhibition at 500 µg/mL (HCMV, strain AD-169; Human betaherpesvirus 5, AD169, MRC5, MRC-5 cells, AM 285 500 μg/ml) was 54%, the inhibition at 1000 µg/mL (HCMV, strain AD-169; Human betaherpesvirus 5, AD169, MRC5, MRC-5 cells, AM 285 1000 μg/ml) was 75% and the inhibition at 2000 µg/mL (HCMV, strain AD-169; Human betaherpesvirus 5, AD169, MRC5, MRC-5 cells, AM 285 2000 μg/ml) was 100%. For the same compound, the inhibition at 4000 µg/mL (HCMV, strain AD-169; Human betaherpesvirus 5, AD169, MRC5, MRC-5 cells, AM 285 4000 μg/ml) was 100%, the “TI50 (CD50 ÷ ED50)” value (HCMV, strain AD-169; MRC-5 cells, Table 4) was “greater than 6.5” and the “TI50 (CD50 ÷ ED50)” value (HCMV, strain AD-169; MRC-5 cells, Table 4, listed as AM 285) was greater than 6.5. For the same compound, the “# Plaques” value (HCMV, strain AD-169; MRC-5 cells, AM 285 62.5 μg/ml, virus control 26.4 ± 5.2) was 25, the “# Plaques” value (HCMV, strain AD-169; MRC-5 cells, AM 285 125 μg/ml, virus control 26.4 ± 5.2) was 26 and the “# Plaques” value (HCMV, strain AD-169; MRC-5 cells, AM 285 250 μg/ml, virus control 26.4 ± 5.2) was 23. The “# Plaques” value (HCMV, strain AD-169; MRC-5 cells, AM 285 500 μg/ml, virus control 26.4 ± 5.2) was 12, the “# Plaques” value (HCMV, strain AD-169; MRC-5 cells, AM 285 1000 μg/ml, virus control 26.4 ± 5.2) was 6 and the “# Plaques” value (HCMV, strain AD-169; MRC-5 cells, AM 285 2000 μg/ml, virus control 26.4 ± 5.2) was 0. For the same compound, the “# Plaques” value (HCMV, strain AD-169; MRC-5 cells, AM 285 4000 μg/ml, virus control 26.4 ± 5.2) was 0, the “tolerance of dietary cyclocreatine” value [4] was “without significant mortality” and the metabolised ([5]; a2058 cells) was 13%. The metabolised ([5]; du 145 cells) was 76%, the metabolised ([5]; me180 cells) was 85% and the metabolised ([5]; vero cells) was 68%.
